Tests used:
Experiment in all cases: relative viability (nuclei count vs DMSO), 5 days (fraction); higher = more cells survive
Erlotinib + Palbociclib = compound: C#Cc1cccc(Nc2ncnc3cc(OCCOC)c(OCCOC)cc23)c1 [Erlotinib] + CC(=O)c1c(C)c2cnc(Nc3ccc(N4CCNCC4)cn3)nc2n(C2CCCC2)c1=O [Palbociclib] (partner 0.5 µM)
Method in brief: (§1)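 Lung cancer cell lines were pin-tool dosed in 1536-well plates on the day after seeding, with either a lone drug or a fixed anchor-drug dose plus five library-drug doses (not always all listed) in √10 steps. Nuclei were counted on 4× images after 5 days. Relative viability is the ratio of treated-well to vehicle-well nuclei counts, with each value a median of duplicate plates.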

Erlotinib + Foretinib = compound: C#Cc1cccc(Nc2ncnc3cc(OCCOC)c(OCCOC)cc23)c1 [Erlotinib] + COc1cc2c(Oc3ccc(NC(=O)C4(C(=O)Nc5ccc(F)cc5)CC4)cc3F)ccnc2cc1OCCCN1CCOCC1 [Foretinib] (partner 0.25 µM)
Method in brief: as §1

Erlotinib + Pemetrexed = compound: C#Cc1cccc(Nc2ncnc3cc(OCCOC)c(OCCOC)cc23)c1 [Erlotinib] + Nc1nc2[nH]cc(CCc3ccc(C(=O)N[C@@H](CCC(=O)O)C(=O)O)cc3)c2c(=O)[nH]1 [Pemetrexed] (partner 0.2 µM)
Method in brief: as §1

AT9283 + Bortezomib = compound: O=C(Nc1c[nH]nc1-c1nc2ccc(CN3CCOCC3)cc2[nH]1)NC1CC1 [AT9283] + CC(C)C[C@H](NC(=O)[C@H](Cc1ccccc1)NC(=O)c1cnccn1)B(O)O [Bortezomib] (partner 0.002 µM)
Method in brief: as §1

AT9283 + Tozasertib = compound: O=C(Nc1c[nH]nc1-c1nc2ccc(CN3CCOCC3)cc2[nH]1)NC1CC1 [AT9283] + Cc1cc(Nc2cc(N3CCN(C)CC3)nc(Sc3ccc(NC(=O)C4CC4)cc3)n2)n[nH]1 [Tozasertib] (partner 0.1 µM)
Method in brief: as §1

PC-3 [JPC-3]
relative viability (Erlotinib + Palbociclib; first compound 0.02 µM): 0.536
relative viability (Erlotinib + Palbociclib; first compound 0.2 µM): 0.473
relative viability (Erlotinib + Palbociclib; first compound 0.6325 µM): 0.339
relative viability (Erlotinib + Palbociclib; first compound 2 µM): 0.376
relative viability (Erlotinib + Foretinib; first compound 0.02 µM): 0.935
relative viability (Erlotinib + Foretinib; first compound 0.2 µM): 0.384
relative viability (Erlotinib + Foretinib; first compound 0.6325 µM): 0.323
relative viability (Erlotinib + Foretinib; first compound 2 µM): 0.36
relative viability (Erlotinib + Pemetrexed; first compound 0.02 µM): 0.719
relative viability (Erlotinib + Pemetrexed; first compound 0.2 µM): 0.477
relative viability (Erlotinib + Pemetrexed; first compound 0.6325 µM): 0.488
relative viability (Erlotinib + Pemetrexed; first compound 2 µM): 0.37
relative viability (AT9283 + Bortezomib; first compound 0.003 µM): 0.822
relative viability (AT9283 + Bortezomib; first compound 0.03 µM): 0.86
relative viability (AT9283 + Bortezomib; first compound 0.09487 µM): 0.867
relative viability (AT9283 + Bortezomib; first compound 0.3 µM): 0.687
relative viability (AT9283 + Tozasertib; first compound 0.003 µM): 0.924
relative viability (AT9283 + Tozasertib; first compound 0.03 µM): 0.814
relative viability (AT9283 + Tozasertib; first compound 0.09487 µM): 0.492
relative viability (AT9283 + Tozasertib; first compound 0.3 µM): 0.58

PC-14
relative viability (Erlotinib + Palbociclib; first compound 0.02 µM): 0.173
relative viability (Erlotinib + Palbociclib; first compound 0.2 µM): 0.0873
relative viability (Erlotinib + Palbociclib; first compound 0.6325 µM): 0.0953
relative viability (Erlotinib + Palbociclib; first compound 2 µM): 0.0635
relative viability (Erlotinib + Foretinib; first compound 0.02 µM): 0.76
relative viability (Erlotinib + Foretinib; first compound 0.2 µM): 0.23
relative viability (Erlotinib + Foretinib; first compound 0.6325 µM): 0.199
relative viability (Erlotinib + Foretinib; first compound 2 µM): 0.153
relative viability (Erlotinib + Pemetrexed; first compound 0.02 µM): 0.11
relative viability (Erlotinib + Pemetrexed; first compound 0.2 µM): 0.168
relative viability (Erlotinib + Pemetrexed; first compound 0.6325 µM): 0.15
relative viability (Erlotinib + Pemetrexed; first compound 2 µM): 0.133
relative viability (AT9283 + Bortezomib; first compound 0.003 µM): 0.944
relative viability (AT9283 + Bortezomib; first compound 0.03 µM): 0.704
relative viability (AT9283 + Bortezomib; first compound 0.09487 µM): 0.179
relative viability (AT9283 + Bortezomib; first compound 0.3 µM): 0.116
relative viability (AT9283 + Tozasertib; first compound 0.003 µM): 0.504
relative viability (AT9283 + Tozasertib; first compound 0.03 µM): 0.387
relative viability (AT9283 + Tozasertib; first compound 0.09487 µM): 0.0959
relative viability (AT9283 + Tozasertib; first compound 0.3 µM): 0.0742

RERF-LC-KJ
relative viability (Erlotinib + Palbociclib; first compound 0.02 µM): 1.02
relative viability (Erlotinib + Palbociclib; first compound 0.2 µM): 1.01
relative viability (Erlotinib + Palbociclib; first compound 0.6325 µM): 0.93
relative viability (Erlotinib + Palbociclib; first compound 2 µM): 0.759
relative viability (Erlotinib + Foretinib; first compound 0.02 µM): 0.875
relative viability (Erlotinib + Foretinib; first compound 0.2 µM): 0.834
relative viability (Erlotinib + Foretinib; first compound 0.6325 µM): 0.803
relative viability (Erlotinib + Foretinib; first compound 2 µM): 0.715
relative viability (Erlotinib + Pemetrexed; first compound 0.02 µM): 0.461
relative viability (Erlotinib + Pemetrexed; first compound 0.2 µM): 0.457
relative viability (Erlotinib + Pemetrexed; first compound 0.6325 µM): 0.444
relative viability (Erlotinib + Pemetrexed; first compound 2 µM): 0.44
relative viability (AT9283 + Bortezomib; first compound 0.003 µM): 1.02
relative viability (AT9283 + Bortezomib; first compound 0.03 µM): 0.793
relative viability (AT9283 + Bortezomib; first compound 0.09487 µM): 0.526
relative viability (AT9283 + Bortezomib; first compound 0.3 µM): 0.296
relative viability (AT9283 + Tozasertib; first compound 0.003 µM): 0.42
relative viability (AT9283 + Tozasertib; first compound 0.03 µM): 0.242
relative viability (AT9283 + Tozasertib; first compound 0.09487 µM): 0.203
relative viability (AT9283 + Tozasertib; first compound 0.3 µM): 0.247

SK-LU-1
relative viability (Erlotinib + Palbociclib; first compound 0.02 µM): 0.372
relative viability (Erlotinib + Palbociclib; first compound 0.2 µM): 0.432
relative viability (Erlotinib + Palbociclib; first compound 0.6325 µM): 0.376
relative viability (Erlotinib + Palbociclib; first compound 2 µM): 0.357
relative viability (Erlotinib + Foretinib; first compound 0.02 µM): 0.961
relative viability (Erlotinib + Foretinib; first compound 0.2 µM): 0.975
relative viability (Erlotinib + Foretinib; first compound 0.6325 µM): 0.997
relative viability (Erlotinib + Foretinib; first compound 2 µM): 0.699
relative viability (Erlotinib + Pemetrexed; first compound 0.02 µM): 1.07
relative viability (Erlotinib + Pemetrexed; first compound 0.2 µM): 1.01
relative viability (Erlotinib + Pemetrexed; first compound 0.6325 µM): 1.05
relative viability (AT9283 + Bortezomib; first compound 0.003 µM): 1.21
relative viability (AT9283 + Bortezomib; first compound 0.03 µM): 1.02
relative viability (AT9283 + Bortezomib; first compound 0.09487 µM): 0.646
relative viability (AT9283 + Bortezomib; first compound 0.3 µM): 0.279
relative viability (AT9283 + Tozasertib; first compound 0.003 µM): 0.359
relative viability (AT9283 + Tozasertib; first compound 0.03 µM): 0.301
relative viability (AT9283 + Tozasertib; first compound 0.09487 µM): 0.253
relative viability (AT9283 + Tozasertib; first compound 0.3 µM): 0.267

SW 1573
relative viability (Erlotinib + Palbociclib; first compound 0.02 µM): 0.38
relative viability (Erlotinib + Palbociclib; first compound 0.2 µM): 0.362
relative viability (Erlotinib + Palbociclib; first compound 0.6325 µM): 0.37
relative viability (Erlotinib + Palbociclib; first compound 2 µM): 0.355
relative viability (Erlotinib + Foretinib; first compound 0.02 µM): 0.886
relative viability (Erlotinib + Foretinib; first compound 0.2 µM): 0.911
relative viability (Erlotinib + Foretinib; first compound 0.6325 µM): 0.895
relative viability (Erlotinib + Foretinib; first compound 2 µM): 0.9
relative viability (Erlotinib + Pemetrexed; first compound 0.02 µM): 0.886
relative viability (Erlotinib + Pemetrexed; first compound 0.2 µM): 0.746
relative viability (Erlotinib + Pemetrexed; first compound 0.6325 µM): 0.865
relative viability (Erlotinib + Pemetrexed; first compound 2 µM): 0.805
relative viability (AT9283 + Bortezomib; first compound 0.003 µM): 1.04
relative viability (AT9283 + Bortezomib; first compound 0.03 µM): 0.304
relative viability (AT9283 + Bortezomib; first compound 0.09487 µM): 0.279
relative viability (AT9283 + Bortezomib; first compound 0.3 µM): 0.236
relative viability (AT9283 + Tozasertib; first compound 0.003 µM): 0.204
relative viability (AT9283 + Tozasertib; first compound 0.03 µM): 0.192
relative viability (AT9283 + Tozasertib; first compound 0.09487 µM): 0.211
relative viability (AT9283 + Tozasertib; first compound 0.3 µM): 0.112

UMC-11
relative viability (Erlotinib + Palbociclib; first compound 0.02 µM): 0.364
relative viability (Erlotinib + Palbociclib; first compound 0.2 µM): 0.328
relative viability (Erlotinib + Palbociclib; first compound 0.6325 µM): 0.345
relative viability (Erlotinib + Palbociclib; first compound 2 µM): 0.382
relative viability (Erlotinib + Foretinib; first compound 0.02 µM): 1.04
relative viability (Erlotinib + Foretinib; first compound 0.2 µM): 0.973
relative viability (Erlotinib + Foretinib; first compound 0.6325 µM): 1.08
relative viability (Erlotinib + Foretinib; first compound 2 µM): 1.08
relative viability (Erlotinib + Pemetrexed; first compound 0.02 µM): 0.759
relative viability (Erlotinib + Pemetrexed; first compound 0.2 µM): 0.746
relative viability (Erlotinib + Pemetrexed; first compound 0.6325 µM): 0.851
relative viability (Erlotinib + Pemetrexed; first compound 2 µM): 0.668
relative viability (AT9283 + Bortezomib; first compound 0.003 µM): 0.465
relative viability (AT9283 + Bortezomib; first compound 0.03 µM): 0.108
relative viability (AT9283 + Bortezomib; first compound 0.09487 µM): 0.0924
relative viability (AT9283 + Bortezomib; first compound 0.3 µM): 0.129
relative viability (AT9283 + Tozasertib; first compound 0.003 µM): 0.19
relative viability (AT9283 + Tozasertib; first compound 0.03 µM): 0.221
relative viability (AT9283 + Tozasertib; first compound 0.09487 µM): 0.207
relative viability (AT9283 + Tozasertib; first compound 0.3 µM): 0.21

Reference: the supplement of paper PMC10307832
